Article PMC4142842, “Synthesis of isoprenoid bisphosphonate ethers through C–P bond formations: Potential inhibitors of geranylgeranyl diphosphate synthase” (Beilstein Journal of Organic Chemistry, 2014)
pIC50: −log10 of the molar value. Read-outs that look alike come from different tables or passages of the source.

Assays:
[1] = molecular target: T1, farnesyl diphosphate synthase (FDPS) (Homo sapiens, UniProt P14324); parameters: method as in PMID 17208200; conditions: earlier enzyme assays; cited from earlier work
T1 construct: gift of Dr. James E. Dunford (not a commercial vendor)
T1 sequence (P14324 1-419): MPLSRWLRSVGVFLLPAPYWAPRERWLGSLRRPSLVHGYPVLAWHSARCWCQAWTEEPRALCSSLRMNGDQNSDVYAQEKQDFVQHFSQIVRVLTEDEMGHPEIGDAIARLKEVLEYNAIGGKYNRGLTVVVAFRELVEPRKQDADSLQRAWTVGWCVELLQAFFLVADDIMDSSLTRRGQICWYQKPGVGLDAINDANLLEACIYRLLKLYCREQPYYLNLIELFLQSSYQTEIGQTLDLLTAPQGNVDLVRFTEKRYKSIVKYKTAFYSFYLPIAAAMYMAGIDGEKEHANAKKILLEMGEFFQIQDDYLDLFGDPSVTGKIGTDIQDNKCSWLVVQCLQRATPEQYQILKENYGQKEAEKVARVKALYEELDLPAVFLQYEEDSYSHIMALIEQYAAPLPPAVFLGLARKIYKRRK

[2] = molecular target: T1, farnesyl diphosphate synthase (FDPS); test: FDPS enzyme assay (14C-IPP incorporation, GPP substrate); type: biochemical; conditions: for pIC50: 10 µM GPP, 10 min preincubation
K562 cells = system: K562 cells; parameters: method as in PMID 16517172; conditions: micromolar DGBP; cited from earlier work
[3] = molecular target: T2, geranylgeranyl diphosphate synthase (GGDPS) (Homo sapiens, UniProt O95749); test: GGDPS enzyme assay (14C-IPP incorporation, FPP substrate); type: biochemical; conditions: for pIC50 / activity against GGDPS (in words): enzyme assay; for pIC50: 10 µM FPP, 10 min preincubation
T2 construct: gift of Dr. James E. Dunford (not a commercial vendor)
T2 sequence (O95749 1-300): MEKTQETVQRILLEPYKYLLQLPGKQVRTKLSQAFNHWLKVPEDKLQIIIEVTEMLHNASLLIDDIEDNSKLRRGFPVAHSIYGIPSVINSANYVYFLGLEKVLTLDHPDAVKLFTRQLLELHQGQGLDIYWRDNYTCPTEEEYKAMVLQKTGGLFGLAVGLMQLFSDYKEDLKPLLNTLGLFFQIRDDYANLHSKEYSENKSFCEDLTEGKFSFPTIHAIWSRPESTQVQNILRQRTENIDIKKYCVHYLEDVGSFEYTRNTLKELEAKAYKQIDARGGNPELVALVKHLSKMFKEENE

[4] = molecular target: T2, geranylgeranyl diphosphate synthase (GGDPS); conditions: previously reported limited activity; cited from earlier work

Row | pIC50 [2] | pIC50 [3] | activity against FDPS (in words) [2] | Structure (SMILES) | further results
1 | < 5.00 |  |  | CC(C)=CCC/C(C)=C/CC(C/C=C(\C)CCC=C(C)C)(P(=O)(O)O)P(=O)(O)O [Compound 5, digeranyl bisphosphonate] | pIC50 [1]: < 5.00; Rap1a geranylgeranylation (Western blot) (K562 cells): only partially modified
2 | < 5.00 | 6.39 |  | CC(C)=CCC/C(C)=C/COC(C/C=C(\C)CCC=C(C)C)(P(=O)(O)O)P(=O)(O)O [Compound 6] | 
3 | < 5.00 | 6.62 |  | CC(C)=CCC/C(C)=C/COC(P(=O)(O)O)P(=O)(O)O [Compound 11] | 
4 |  |  | little or no activity | CC(C)=CCOC(P(=O)(O)O)P(=O)(O)O [Compound 14] | activity against GGDPS (in words) [3]: little or no activity
5 | 6.08 | 6.16 |  | CC(C)=CCC/C(C)=C/CC(OCC=C(C)C)(P(=O)(O)O)P(=O)(O)O [Compound 16] | 
6 | 5.28 | 5.32 | little or no activity | CC(C)=CCOC(CC=C(C)C)(P(=O)(O)O)P(=O)(O)O [Compound 18] | activity against GGDPS (in words) [3]: little or no activity
7 | < 5.00 | 6.56 |  | CC(C)=CCC/C(C)=C/COC(CC=C(C)C)(P(=O)(O)O)P(=O)(O)O [Compound 20] | 
8 | < 5.00 | 7.09 | no activity | CC(C)=CCC/C(C)=C/CC(OCC[C@@H](C)CCC=C(C)C)(P(=O)([O-])[O-])P(=O)([O-])[O-].[Na+].[Na+].[Na+].[Na+] [Compound 24] | fold more potent than the DGBP control (5), GGDPS ([3]; ratio of GGDPS IC50 values): ~ 2.6 fold
9 |  |  |  | CC(C)=CCCC(C)=CCC(P(=O)(O)O)P(=O)(O)O [geranyl bisphosphonate] | activity previously reported (GGDPS inhibition) [4]: 10 µM
